MIC data for three compounds are collected here from US6866870B2 (priority 2002, dated 2005).

Like-named read-outs stand apart in the source and are kept apart here.

The test system of experiment [1] is Pseudomonas aeruginosa ATCC 1942.
For experiment [2], the system named is B. anthracis. In kind it is cell-based, Bacillus anthracis. The conditions noted are these: vegetative cells; component alone; 24 h.
The subject of experiment [3] is B. cereus. In kind it is cell-based, Bacillus cereus.
Experiment [4] concerns B. subtilis. In kind it is cell-based, Bacillus subtilis.
Experiment [5] deals with B. pumilus RJ 0055. In kind it is cell-based, Bacillus pumilus.
For experiment [6], the system named is L. mesenteroides B 512F. The experiment is classed as cell-based, Leuconostoc mesenteroides.
In experiment [7] the test system is Xanthomonas maltophilia 948. The experiment is classed as cell-based.
Experiment [8] concerns B. anthracis spores. The experiment is classed as cell-based, Bacillus anthracis. To be noted: component alone.
Experiment [9] relates to B. cereus spores. The experiment is classed as cell-based, Bacillus cereus.
In experiment [10] the test system is B. subtilis spores. The experiment is classed as cell-based, Bacillus subtilis.
The test system of experiment [11] is B. pumilus RJ 0055 spores. The experiment is classed as cell-based, Bacillus pumilus.
The subject of experiment [12] is E. coli B ATCC 23226.
The test system of experiment [13] is S typhimurium ATCC 14028.
Experiment [14] deals with Listeria monocytogenes.
Where [15] appears, read: component alone, 24 hours at 35° C.
Where [16] appears, read: vegetative cells, component alone, 24 h.

Compound `[Na+].[Na+].[O-][O-]` [Sodium Peroxide, sodium peroxide] came in with an MIC in experiment [1] (setting [15]) of 150 weight ppm.
Consider `OO` [H2O2, hydrogen peroxide], for which the MIC in experiment [2] amounted to 0.01 wt %; in experiment [3], 0.025 wt %; in experiment [4], 0.025 wt %; in [5] it was 0.025 wt %; in [6] it was 0.006 wt %; in experiment [7], 0.005 wt %. The MIC in experiment [8] turned out to be 1.0 wt %; in experiment [9], 5.0 wt %; in experiment [10] it was 5.0 wt %; in experiment [11] it was 4.0 wt %; in experiment [12], 0.01 wt %; in experiment [13] it was 0.01 wt %. Further, the MIC is listed as 0.005 wt % in [14] and 150 weight ppm in [1].
As to `[Na+].[O-]Cl` [NaHClO3, sodium hypochlorite], the MIC is given as 0.05 wt % in experiment [2]; 0.1 wt % in experiment [3] (setting [16]); 0.1 wt % in experiment [4] (setting [16]); 0.1 wt % in experiment [5] (setting [16]); 0.035 wt % in experiment [6] (setting [16]); 0.01 wt % in [7] (setting [16]). Besides, the MIC in experiment [8] came to 1.0 wt %; in experiment [9] ([…], component alone), 4.0 wt %; in experiment [10] ([…], component alone), 4.0 wt %; in experiment [11] ([…], component alone), 3.5 wt %; in experiment [12] (setting [16]), 0.02 wt %; in experiment [13] (setting [16]), 0.02 wt %. The MIC in [14] (setting [16]) was determined as 0.05 wt %; in experiment [1] (setting [15]), 500 weight ppm.
